Consider 22 compounds from PubChem BioAssay AID330 (DTP/NCI, 2004).

“And” between values parts separate entries of the source, which are not always exact repeats. Equal values may be shown once. Toxic doses and inconclusive results are not listed.

This assay has as its system P388 leukemia ip, CD2F1 mice, survival T/C. Nature of the assay: NCI In Vivo Anticancer Drug Screen. Data for tumor model P388 Leukemia (intraperitoneal) in CD2F1 (CDF1) mice. As to conditions: endpoint: median survival time, higher = longer survival. An outline of the steps: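 Mice carrying the transplanted tumor received test compound or vehicle. Survival was recorded in each group, and the value is the treated-group measurement divided by that of the vehicle-treated control group.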

Where [1] appears, read: dose: 60.0 mg/kg/injection, schedule: Q01DX005 (ip), vehicle: saline with Tween-80.
[2] abbreviates: dose: 120.0 mg/kg/injection, schedule: Q01DX005 (ip), vehicle: saline with Tween-80.
[3] abbreviates: dose: 240.0 mg/kg/injection, schedule: Q01DX005 (ip), vehicle: saline with Tween-80.
[4] abbreviates: dose: 25.0 mg/kg/injection, schedule: Q01DX009 (ip), vehicle: Klucel (hydroxypropylcellulose) (HPC).
[5] abbreviates: dose: 50.0 mg/kg/injection, schedule: Q01DX009 (ip), vehicle: Klucel (hydroxypropylcellulose) (HPC).
The mark [6] stands for this setting: dose: 100.0 mg/kg/injection, schedule: Q01DX009 (ip), vehicle: Klucel (hydroxypropylcellulose) (HPC).
Where [7] appears, read: dose: 100.0 mg/kg/injection, schedule: Q04DX002 (ip), vehicle: saline with Tween-80.
Setting [8] is: dose: 200.0 mg/kg/injection, schedule: Q04DX002 (ip), vehicle: saline with Tween-80.
The mark [9] stands for this setting: dose: 400.0 mg/kg/injection, schedule: Q04DX002 (ip), vehicle: saline with Tween-80.
Where [10] appears, read: dose: 50.0 mg/kg/injection, schedule: Q01DX009 (ip), vehicle: saline with Tween-80.
Setting [11] is: dose: 50.0 mg/kg/injection, schedule: Q01DX005 (ip), vehicle: Klucel (hydroxypropylcellulose) (HPC).
Where [12] appears, read: dose: 100.0 mg/kg/injection, schedule: Q01DX005 (ip), vehicle: Klucel (hydroxypropylcellulose) (HPC).
Where [13] appears, read: dose: 200.0 mg/kg/injection, schedule: Q01DX005 (ip), vehicle: Klucel (hydroxypropylcellulose) (HPC).

As for `CN(C=O)c1ccc(Cl)cc1`, the T/C reads like this: (dose: 100.0 mg/kg/injection, schedule: Q04DX002 (ip), vehicle: saline) 100 % of control; (dose: 200.0 mg/kg/injection, schedule: Q04DX002 (ip), vehicle: saline) 97 % of control; (dose: 400.0 mg/kg/injection, schedule: Q04DX002 (ip), vehicle: saline) 100 % of control.

As to `NC1CCOC1=O` (configuration not stated), the T/C (dose: 50.0 mg/kg/injection, schedule: Q01DX005 (ip), vehicle: saline) is 100 % of control; the T/C (dose: 100.0 mg/kg/injection, schedule: Q01DX005 (ip), vehicle: saline) was 103 % of control; the T/C (dose: 200.0 mg/kg/injection, schedule: Q01DX005 (ip), vehicle: saline) was 100 % of control.

Turning to `CC(=O)Nc1ccccc1/C=C/c1ccccn1`, the T/C reads like this: (dose: 100.0 mg/kg/injection, schedule: Q01DX001 (ip), vehicle: saline with Tween-80) 106 % of control; (dose: 200.0 mg/kg/injection, schedule: Q01DX001 (ip), vehicle: saline with Tween-80) 106 % of control; (dose: 400.0 mg/kg/injection, schedule: Q01DX001 (ip), vehicle: saline with Tween-80) 95 % of control.

Turning to `CC1(C)C/C(=N/NC(N)=S)C(=NO)/C(=N\NC(N)=S)C1`, the T/C reads like this: under setting [1], 123 % of control; under setting [2], 110 % of control; under setting [3], 113 % of control.

Consider `Oc1c(C(Nc2cccc3cccnc23)c2ccccc2)ccc2cccnc12` (configuration not stated), for which the T/C is 110 % of control under setting [4]; 106 % of control and 111 % of control under setting [5]; 106 % of control and 107 % of control under setting [6].

For the compound `CC(C)CC1NC(=O)C2N=C(OC2C)C2CSSCC(NC(=O)c3csc1n3)C1=NC(C(=O)NC(CC(C)C)c3nc(cs3)C(=O)N2)C(C)O1` (configuration not stated), the T/C is 97 % of control (dose: 0.2 mg/kg/injection, schedule: Q01DX005 (ip), vehicle: DMSO); 96 % of control (dose: 0.4 mg/kg/injection, schedule: Q01DX005 (ip), vehicle: DMSO); 90 % of control (dose: 0.8 mg/kg/injection, schedule: Q01DX005 (ip), vehicle: DMSO); 97 % of control (dose: 1.5 mg/kg/injection, schedule: Q01DX005 (ip), vehicle: DMSO).

For the compound `C[N+](C)(C)CCOP(=O)([O-])OC1CCCC1`, the T/C is 103 % of control (dose: 50.0 mg/kg/injection, schedule: Q01DX009 (ip), vehicle: saline); 100 % of control (dose: 100.0 mg/kg/injection, schedule: Q01DX009 (ip), vehicle: saline); 105 % of control (dose: 200.0 mg/kg/injection, schedule: Q01DX009 (ip), vehicle: saline).

Turning to `O=C1C=CSc2ccccc2N1`, the T/C is, setting by setting: under setting [1], 110 % of control; under setting [2], 103 % of control; under setting [3], 101 % of control.

With `CN(C/C=C/CN(C)N=O)N=O`, the T/C runs as follows: (dose: 12.5 mg/kg/injection, schedule: Q01DX009 (ip), vehicle: Klucel (hydroxypropylcellulose) (HPC)) 116 % of control; under setting [4], 118 % of control; under setting [5], 96 % of control.

For the compound `Nc1ccccc1Sc1ccc2c3c(cccc13)C(=O)N(c1ccccc1)C2=O`, the T/C by setting is: (dose: 50.0 mg/kg/injection, schedule: Q01DX005 (ip), vehicle: saline with Tween-80) 91 % of control; (dose: 100.0 mg/kg/injection, schedule: Q01DX005 (ip), vehicle: saline with Tween-80) 90 % of control; (dose: 200.0 mg/kg/injection, schedule: Q01DX005 (ip), vehicle: saline with Tween-80) 100 % of control.

Turning to `Nc1ccc2c(NCCCCCCCCNc3c4ccccc4nc4cc(N)ccc34)c3ccccc3nc2c1`, the T/C (dose: 1.25 mg/kg/injection, schedule: Q01DX009 (ip), vehicle: other) was 158 % of control; the T/C (dose: 2.5 mg/kg/injection, schedule: Q01DX009 (ip), vehicle: other) was 150 % of control; the T/C (dose: 5.0 mg/kg/injection, schedule: Q01DX009 (ip), vehicle: other) is 151 % of control.

For `O=C(N1CCN(C(=O)S(=O)(=O)c2ccccc2)CC1)S(=O)(=O)c1ccccc1`, the T/C is 92 % of control under setting [5]; 100 % of control under setting [6]; 100 % of control (dose: 200.0 mg/kg/injection, schedule: Q01DX009 (ip), vehicle: Klucel (hydroxypropylcellulose) (HPC)).

Turning to `CO[C@@]12[C@@H]3N[C@@H]3CN1C1=C(C(=O)C(NCC3CCCO3)=C(C)C1=O)[C@@H]2COC(N)=O` (some centres not stated), the T/C (dose: 1.56 mg/kg/injection, schedule: Q01DX005 (ip), vehicle: distilled water + Tween-80) was 155 % of control; the T/C (dose: 3.12 mg/kg/injection, schedule: Q01DX005 (ip), vehicle: distilled water + Tween-80) is 194 % of control; the T/C (dose: 6.25 mg/kg/injection, schedule: Q01DX005 (ip), vehicle: distilled water + Tween-80) was 198 % of control and 241 % of control; the T/C (dose: 12.5 mg/kg/injection, schedule: Q01DX001 (ip), vehicle: distilled water + Tween-80) is 158 % of control; the T/C (dose: 12.5 mg/kg/injection, schedule: Q01DX005 (ip), vehicle: distilled water + Tween-80) is 223 % of control and 225 % of control; the T/C (dose: 25.0 mg/kg/injection, schedule: Q01DX001 (ip), vehicle: distilled water + Tween-80) was 165 % of control. The T/C by setting is: (dose: 25.0 mg/kg/injection, schedule: Q01DX005 (ip), vehicle: distilled water + Tween-80) 100 % of control and 207 % of control; (dose: 50.0 mg/kg/injection, schedule: Q01DX001 (ip), vehicle: distilled water + Tween-80) 203 % of control.

In the case of `CCC1(C2OC(C3OC(O)(CO)C(C)CC3C)CC2C)CCC(C2(C)CCC3(CC(O)C(C)C(C(C)C(OC)C(C)C(=O)O)O3)O2)O1` (configuration not stated), the T/C is 110 % of control and 112 % of control (dose: 3.13 mg/kg/injection, schedule: Q01DX005 (ip), vehicle: saline with Tween-80); 108 % of control and 111 % of control and 118 % of control (dose: 6.25 mg/kg/injection, schedule: Q01DX005 (ip), vehicle: saline with Tween-80); 120 % of control (dose: 12.5 mg/kg/injection, schedule: Q01DX005 (ip), vehicle: saline with Tween-80).

Turning to `Cc1ccc2c(c1)SP(c1ccccc1)S2` (configuration not stated), the T/C is, setting by setting: under setting [7], 103 % of control; under setting [8], 104 % of control; under setting [9], 112 % of control.

Turning to `CC(C)(C)c1ccc(Sc2cccc3c2C(=O)c2c(Sc4cccc(F)c4)cccc2C3=O)cc1`, the T/C is, setting by setting: under setting [7], 99 % of control; under setting [8], 89 % of control; under setting [9], 95 % of control.

On to `CNCc1nc2sc3c(c2c(=O)[nH]1)CCCC3`, for which the T/C under setting [10] is 97 % of control; the T/C (dose: 100.0 mg/kg/injection, schedule: Q01DX009 (ip), vehicle: saline with Tween-80) was 105 % of control; the T/C (dose: 200.0 mg/kg/injection, schedule: Q01DX009 (ip), vehicle: saline with Tween-80) is 102 % of control.

As for `CCOc1ccc2c(N/N=C/c3ccc(N(CCCl)CCCl)cc3)cc(C)nc2c1`, the T/C (dose: 12.5 mg/kg/injection, schedule: Q01DX009 (ip), vehicle: saline with Tween-80) is 96 % of control; the T/C (dose: 25.0 mg/kg/injection, schedule: Q01DX009 (ip), vehicle: saline with Tween-80) is 94 % of control; the T/C under setting [10] was 99 % of control and 88 % of control.

In the case of `c1ccc(C2C(c3nc4ccccc4o3)C(c3ccccc3)C2c2nc3ccccc3o2)cc1` (configuration not stated), the T/C is 91 % of control under setting [11], 89 % of control under setting [12] and 86 % of control under setting [13].

Take `CC(=O)CC(=O)c1c(-c2ccccc2)n(C)c2ccccc12`: the T/C by setting is: (dose: 100.0 mg/kg/injection, schedule: Q01DX001 (ip), vehicle: Klucel (hydroxypropylcellulose) (HPC)) 98 % of control; (dose: 200.0 mg/kg/injection, schedule: Q01DX001 (ip), vehicle: Klucel (hydroxypropylcellulose) (HPC)) 101 % of control; (dose: 400.0 mg/kg/injection, schedule: Q01DX001 (ip), vehicle: Klucel (hydroxypropylcellulose) (HPC)) 102 % of control.

Take `[Cu+2].[NH-]CC(=O)NC(Cc1ccccc1)C(=O)O.[NH-]CC(=O)NC(Cc1ccccc1)C(=O)O` (configuration not stated): the T/C is, setting by setting: (dose: 12.5 mg/kg/injection, schedule: Q04DX003 (ip), vehicle: saline) 93 % of control; (dose: 25.0 mg/kg/injection, schedule: Q04DX003 (ip), vehicle: saline) 90 % of control; (dose: 50.0 mg/kg/injection, schedule: Q04DX003 (ip), vehicle: saline) 100 % of control.

On to `O=C1C2Nc3ccccc3N=C2OC1c1ccccc1` (configuration not stated), for which the T/C by setting is: under setting [11], 96 % of control; under setting [12], 96 % of control; under setting [13], 100 % of control.
